Among the data in patent US20250295690A1, “ORAL FORMULATION BASED ON A PRE-ESTABLISHED ASSOCIATION OF SULODEXIDE AND FLAVONOIDS FOR THE TREATMENT OF CHRONIC VENOUS INSUFFICIENCY AND PREVENTION OF COMPLICATIONS THEREOF” (priority 2021, published 2025) are increase in permeability values, retold here.

Experiment [1] has as its system human micro-vascular endothelial cells (HMVEC). The experiment is described as follows: In vitro vascular permeability assay on a VEGF-treated HMVEC monolayer (FITC-dextran). It is filed as cell-based. The note with it: HMVEC line, 50 ng/ml, 8 hours. As to the method: (§1) The direct effect on the vasal permeability of three compositions comprising Sulodexide+flavonoids was evaluated in vitro:
(§2) All tested compositions (i)-(iii) comprise a concentration of sulodexide equal to 0.25% and a concentration of diosmin, hesperidin or troxerutin, respectively, equal to 4.5% by weight with respect to the total weight of the composition.
(§3) The action of the compositions (i)-(iii) was compared with the action of the active principles Diosmin, Hesperidin, Troxerutin, 8% by weight, and glucosaminoglycan Sulodexide, 0.5% by weight, administered singularly.
(§4) The direct effect on the vasal permeability was evaluated by using endothelial cellular cultures miming the continuous mono-layer of the endothelium of the human vessels. Two cellular models were used: the human micro-vascular endothelial cells (HMVEC) to simulate the vessels of the microcirculation, and the human umbilical vein endothelial cells (HUVEC) to study the vasal endothelium. The cells of the lines HMVEC and HUVEC (3×10^5) were incubated for 72 hours at 37° C. on supports of semi-permeable membrane with pores having 1-μm diameter so as to form a continuous mono-layer wholly impermeable to the substance used as control, the fluorescein isothiocyanate (FITC) dextran. The vasal permeability was evaluated with the kit “The Millipore® In Vitro Vascular Permeability Assay”. […]

Experiment [2] relates to human umbilical vein endothelial cells (HUVEC). Description: In vitro vascular permeability assay on a VEGF-treated HUVEC monolayer (FITC-dextran). The note with it: 50 ng/ml, 8 hours. The format is cell-based. As to the method: as §1, §2, §3, §4

With VEGF, the increase in permeability in experiment [1] amounted to 36%; in experiment [2] it was 42%.
